According to patent US4472383A, “Peptide derivatives, their production and use” (Takeda Chemical Industries, Ltd., priority 1982, dated 1984):

System: Hypertensive Activity of Angiotensin I
Test: Effect against hypertensive activity of angiotensin I in anesthetized-prepared rats (oral administration)
Format: in vivo, Male rats (Sprague-Dawley)
Settings: rat, 13.8 μM/kg orally, angiotensin I 300 ng/kg i.v., corrected for angiotensin II response; for Percent Inhibition (%) against Hypertensive Reaction by Angiotensin I After 20 min.: 20 min after administration; for Percent Inhibition (%) against Hypertensive Reaction by Angiotensin I After 60 min.: 60 min after administration; for Percent Inhibition (%) against Hypertensive Reaction by Angiotensin I After 120 min.: 120 min after administration
Description: Effect of Present Compounds against Hypertensive Activity of Angiotensin I Male rats (Sprague-Dawley) weighing 250 g to 350 g which were fed under free access to drinking water and feeds were used as experimental animals. The rats were anesthetized with intraperitoneal administration of pentobarbital sodium (50 mg/kg) on the day before the test day and a polyethylene tube was inserted into each of the femoral artery for measurement of blood pressure and the femoral vein for injection of angiotensin I and II, and then the tubes were fixed. […] Then, 13.8 μM/kg of the compound of this invention was administered orally as an aqueous solution or an aqueous gum arabic suspension, and 20, 60 and 120 minutes after the administration, angiotensin I and II were injected repeatedly to trace hypertensive reactions. In calculating the percent inhibition to the hypertensive activity of angiotensin I, the percent inhibitory value was corrected based on the variation with time in the hypertensive reaction by angiotensin II.

Compound	Percent Inhibition (%) against Hypertensive Reaction by Angiotensin I After 20 min. [%]	Percent Inhibition (%) against Hypertensive Reaction by Angiotensin I After 60 min. [%]	Percent Inhibition (%) against Hypertensive Reaction by Angiotensin I After 120 min. [%]
Br.CCOC(=O)[C@H](CCc1ccccc1)N[C@@H](C)C(=O)N(CC(=O)N[C@@H](Cc1ccccc1)C(=O)O)C1Cc2ccccc2C1 [Example 3, N-[1(S)-ethoxycarbonyl-3-phenylpropyl]-L-alanyl-N-(2-indanyl)glycyl-L-phenylalanine hydrobromide]	67	73	77
CCCCOC(=O)[C@H](CCc1ccccc1)N[C@@H](C)C(=O)N(CC(=O)N[C@@H](Cc1ccccc1)C(=O)O)C1CCCC1.Cl [Example 6, N-[1(S)-butoxycarbonyl-3-phenylpropyl]-L-alanyl-N-cyclopentylglycyl-L-phenylalanine hydrochloride]	72	84	72
